This is an account of results in patent US5128346A, “Derivatives of D-glutamic acid and D-aspartic acid” (priority 1990, dated 1992).

Where two headings read alike, the source gives them in different places.

The IC50 is the midpoint of a concentration-inhibition curve. A low value points to higher potency.

One assay concerns the target T1, Type-B CCK receptor (Cavia porcellus, UniProt H0VZC5).
T1 construct: cortex and pancreas were removed and rinsed with ice cold saline; from tissue; host or cells: guinea pig cerebral cortex, membranes
T1 sequence (H0VZC5 1-426): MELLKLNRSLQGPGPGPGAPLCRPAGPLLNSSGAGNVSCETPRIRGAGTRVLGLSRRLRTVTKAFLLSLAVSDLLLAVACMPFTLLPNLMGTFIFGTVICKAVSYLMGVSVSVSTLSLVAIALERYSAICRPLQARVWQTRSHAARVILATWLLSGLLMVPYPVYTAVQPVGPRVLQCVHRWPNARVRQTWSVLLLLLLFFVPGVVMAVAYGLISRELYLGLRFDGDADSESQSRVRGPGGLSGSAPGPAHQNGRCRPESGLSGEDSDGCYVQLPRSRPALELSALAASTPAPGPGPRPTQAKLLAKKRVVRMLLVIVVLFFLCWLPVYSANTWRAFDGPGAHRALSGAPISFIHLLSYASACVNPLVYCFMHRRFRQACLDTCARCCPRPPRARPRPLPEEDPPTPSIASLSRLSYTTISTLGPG
Put plainly: Radioligand binding, [^125 I]-BH-CCK8, Type-B CCK receptor (cerebral cortical membranes). Details: species or system guinea pig. The source says: (§1) CCK8 [Asp-Tyr(SO3 H)-Met-Gly-Trp-Met-Asp-Phe-NH2 ] was purchased from Beckman Instruments (Palo Alto, Ca/) and Peptide International (Louisville, Ky.). Chymostatin, L-Try-Gly, puromycin, bestatin, EGTA, HEPES and BSA were purchased from Sigma Chemical Co. (St. Louis, Mo.). [^125 I]BH-CCK8 (specific activity, 2200 Ci/mmol) and Aquasol 2 scintillation cocktail were obtained from New England Nuclear (Boston, Ma.). Male guinea pigs, 250 to 325 g, were obtained from Scientific Small Animal Laboratory and Farm (Arlington Heights, Ill.). Collagenase, 300 units per mg, was purchased from Worthington (Frehold, N.J.)
(§2) 1. Guinea Pig Cerebral Cortical and Pancreatic Membrane Preparations
(§3) Cortical and pancreatic membrances were prepared as described (Lin and Miller; J. Pharmacol. Exp. Ther. 232, 775-780, 1985). In brief, cortex and pancreas were removed and rinsed with ice cold saline. Visible fat and connective tissues were removed from the pancreas. Tissues were weighed and homogenized separately in approximately 25 mL of ice-cold 50 mM Tris-HCl buffer, pH 7.4 at 4° C., with a Brinkman Polytron for 30 sec, setting 7. The homogenates were centrifuged for 10 min at 1075×g and pellets were discarded. The supernatants were saved and centrifuged at 38,730×g for 20 min. The resultant pellets were rehomogenized in 25 mL of 50 mM Tris-HCl buffer with a Teflon-glass homogenizer, 5 up and down strokes. The homogenates were centrifuged again at 38,730×g for 20 min. Pellets were then resuspended in 20 mM HEPES, containing 1 mM EGTA., 118 mM NaCl, 5 mM MgCl2, 100 microM bestatin, 3 microM phosphoramidon, pH 7.4 at 22° C., with a Teflon-glass homogenizer, 15 up and down strokes. Resuspension volume for the cortex was 15-18 mL per gm of original wet weight and 60 mL per gm for the pancreas.
^125 I]Bolton-Hunter CCK8, and test compounds were diluted with HEPES-EGTA-salt buffer (see above) containing 0.5% bovine serum albumin (BSA). To 1 mL Skatron polystyrene tubes were added 25 microliters of test compounds, 25 miroliters of [^125 I]BH-CCK8, and 200 microliters of membrane suspension. The final BSA concentration was 0.1%. The cortical tissues were incubated at 30° C. for 150 min and pancreatic tissues were incubated at 37° C. for 30 min. Incubations were terminated by filtration using Skatron Cell Harvester and SS32 microfiber filter mats. […] IC50 's were determined from the Hill analysis.

In a further assay the target is T2, Type-A CCK receptor (Cavia porcellus, UniProt Q63931).
T2 construct: cortex and pancreas were removed and rinsed with ice cold saline; from tissue; host or cells: guinea pig pancreas, membranes
T2 sequence (Q63931 1-430): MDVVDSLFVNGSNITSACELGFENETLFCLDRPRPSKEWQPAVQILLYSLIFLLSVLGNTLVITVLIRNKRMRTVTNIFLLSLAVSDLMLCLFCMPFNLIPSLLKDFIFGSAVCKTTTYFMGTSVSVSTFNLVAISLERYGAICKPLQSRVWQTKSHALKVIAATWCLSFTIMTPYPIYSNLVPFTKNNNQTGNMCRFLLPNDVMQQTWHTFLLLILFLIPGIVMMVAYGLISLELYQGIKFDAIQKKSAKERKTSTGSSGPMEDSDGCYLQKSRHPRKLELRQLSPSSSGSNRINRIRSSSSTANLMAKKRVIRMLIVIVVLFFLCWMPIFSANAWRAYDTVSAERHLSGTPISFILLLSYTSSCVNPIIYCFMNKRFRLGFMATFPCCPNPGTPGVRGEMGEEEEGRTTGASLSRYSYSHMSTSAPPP
Nature of the assay: Radioligand binding, [^125 I]-BH-CCK8, Type-A CCK receptor (pancreatic membranes). Also noted: species or system guinea pig.
From the text: as §1, §2, §3
^125 I]Bolton-Hunter CCK8, and test compounds were diluted with HEPES-EGTA-salt buffer (see above) containing 0.5% bovine serum albumin (BSA). To 1 mL Skatron polystyrene tubes were added 25 microliters of test compounds, 25 miroliters of [^125 I]BH-CCK8, and 200 microliters of membrane suspension. The final BSA concentration was 0.1%. The cortical tissues were incubated at 30° C. for 150 min and pancreatic tissues were incubated at 37° C. for 30 min. Incubations were terminated by filtration using Skatron Cell Harvester and SS32 microfiber filter mats. The specific binding of [^125 I]BH-CCK8, defined as the difference between binding in the absence and presence of 1 microM CCK8, was 85 90% of pancreas. IC50 's were determined from the Hill analysis.

[1] abbreviates: guinea pig cerebral cortical membranes, 30° C., 150 min, IC50 from Hill analysis.

As to `CCCCCN(CCCCC)C(=O)[C@@H](CCC(=O)OCc1ccccc1)NC(=O)c1cc2ccccc2[nH]1` [Example 3, N-(2'-Indolylcarbonyl)-(γ-benzyl ester)-R-Glu-di-n-pentylamide], the IC50 at Type-B CCK receptor worked out at 3500 nM; at Type-A CCK receptor it was 240 nM.

On to `CCOC(=O)CN(CC(=O)OCC)C(=O)[C@@H](CCC(=O)O)NC(=O)c1cc(O)c2cccc(O)c2n1` [Example 109, N-(4',8'-Dihydroxyquinolyl-2-carbonyl)-R-Glutamyl-bis(carboethoxymethyl)amide], for which the IC50 at Type-B CCK receptor (setting [1]) was found to be 620 nM; on Type-A CCK receptor (guinea pig pancreatic membranes, 37° C., 30 min, IC50 from Hill analysis), 56 nM.

Regarding `CCOC(=O)CN(CC(=O)OCC)C(=O)[C@@H](CCC(=O)OCc1ccccc1)NC(=O)c1cnc2ccccc2c1` [Example 106, N-(3'-Quinolylcarbonyl)-(γ-Benzyl ester)-R-Glutamyl-bis(carboethoxymethyl)amide], the IC50 at Type-B CCK receptor is approximately 10000 nM; on Type-A CCK receptor, 93 nM.

On to `O=C(O)CC[C@@H](NC(=O)c1cc2ccccc2[nH]1)C(=O)Nc1ccccc1-c1ccccc1` [Example 38, N-(2'-Indolylcarbonyl)-R-Glu-N^α -(2'-biphenylamide)], for which the IC50 on Type-B CCK receptor worked out at 7100 nM; at Type-A CCK receptor, 900 nM.

Regarding `COC(=O)[C@@H](NC(=O)[C@@H](CCC(=O)O)NC(=O)c1ccc2ccccc2c1)c1ccccc1` [Example 89, Methyl N-(2 '-Naphthoyl)-R-Glutamyl-S-phenylglycinate], the figures for the IC50 at Type-B CCK receptor and on Type-A CCK receptor were more than 10000 nM and 140 nM, respectively.

On to `CCOC(=O)CN(CC(=O)OCC)C(=O)[C@@H](CCC(=O)O)NC(=O)c1cnc2ccccc2c1` [Example 107, N-(3,-Quinolylcarbonyl)-R-Glutamyl-bis(carboethoxymethyl)amide], for which the IC50 at Type-B CCK receptor was more than 10000 nM; at Type-A CCK receptor it was 110 nM.

Consider `CCOC(=O)CN(Cc1ccccc1)C(=O)[C@@H](CCC(=O)O)NC(=O)c1cnc2ccccc2c1` [Example 83, Ethyl N-(3'-Quinolylcarbonyl)-R-Glutamyl(N-benzyl)glycinate], for which the IC50 on Type-B CCK receptor was more than 10000 nM; on Type-A CCK receptor, 44 nM.

`CCOC(=O)CN(Cc1ccccc1)C(=O)[C@@H](CCC(=O)OCc1ccccc1)NC(=O)c1cc(O)c2cccc(O)c2n1` [Example 84]: the values for the IC50 at Type-B CCK receptor and at Type-A CCK receptor were 620 nM and 28 nM, respectively.

For the compound `O=C(O)CC[C@@H](NC(=O)c1cc2ccccc2[nH]1)C(=O)NC12CC3CC(CC(C3)C1)C2` [Example 54, N-(2'-Indolylcarbonyl)-R-Glu-N^α -(1,-adamantyl)amide], the values for the half-maximal inhibitory concentration (IC50) at Type-B CCK receptor and on Type-A CCK receptor were more than 10000 nM and 660 nM, respectively.

In the case of `COC(=O)[C@@H](NC(=O)[C@@H](CCC(=O)O)NC(=O)c1cc2ccccc2[nH]1)c1ccccc1` [Example 37, Methyl N-(2'-Indolylcarbonyl)-R-Glutamyl-S-phenylglycinate], the “IC50, [^125 I]-BH-CCK, Type-B CCK Receptor” value at Type-B CCK receptor (setting [1]) was 1-10,000 nM. The compound also gave an IC50 at Type-A CCK receptor of 49 nM.

As for `CCCCCN(CCCCC)C(=O)[C@@H](CCC(=O)O)NC(=O)C1CNc2ccccc2N1` (stereo partly drawn) [Example 13, N-(1',2',3',4'-Tetrahydroquinoxalyl-2'-carbonyl)-R-Glu-N^α,N^α -di-n-pentylamide], the IC50 on Type-B CCK receptor was 5600 nM; at Type-A CCK receptor it was 92 nM.

In the case of `COC(=O)[C@@H](NC(=O)[C@@H](CCC(=O)O)NC(=O)c1cnc2ccccc2c1)c1ccccc1` [Example 91, Methyl N-(3,-Quinolylcarbonyl)-R-Glutamyl-S-phenylglycinate], the results for the IC50 on Type-B CCK receptor and on Type-A CCK receptor were more than 10000 nM and 68 nM, respectively.

On to `O=C(CC[C@@H](NC(=O)c1cnc2ccccc2c1)C(=O)NCc1ccccc1)OCc1ccccc1` [Example 25, N-(3'-Quinolylcarbonyl)-(γ-benzyl ester)-R-Glu-benzylamide], for which the 50% inhibitory concentration (IC50) is more than 10000 nM on Type-B CCK receptor and 310 nM at Type-A CCK receptor.

Consider `CCCCCN(CCCCC)C(=O)[C@@H](CCC(=O)O)NC(=O)c1ccc2ccccc2n1` [Example 6, N-(2,-Quinolylcarbonyl)-R-Glu-N^α,N^α -di-n-pentylamide], for which the IC50 amounted to 4200 nM on Type-B CCK receptor and 62 nM on Type-A CCK receptor.

In the case of `CCCCCN(CCCCC)C(=O)[C@@H](CCC(=O)O)NC(=O)c1cnc2ccccc2n1` [Example 10, N-(2'-Quinoxalylcarbonyl)-R-Glu-N^α,N^α -di-n-pentylamide], the IC50 on Type-B CCK receptor was 6500 nM; on Type-A CCK receptor, 34 nM.

Take `CCCCCN(CCCCC)C(=O)[C@@H](CCC(N)=O)NC(=O)c1cc2ccccc2[nH]1` [Example 22, N-(2'-Indolylcarbonyl)-R-Gln-N^α,N^α -di-n-pentylamide]: the figures for the IC50 at Type-B CCK receptor and at Type-A CCK receptor were 6660 nM and 97 nM, respectively.

In the case of `CCCCCN(CCCCC)C(=O)[C@@H](CC(=O)OCc1ccccc1)NC(=O)c1cc2ccccc2[nH]1` [Example 18], the IC50 at Type-B CCK receptor is 2900 nM; at Type-A CCK receptor it was 820 nM.

With `COC(=O)[C@@H](NC(=O)[C@@H](CCC(=O)OCc1ccccc1)NC(=O)c1cc2ccccc2[nH]1)c1ccccc1` [Example 36, Methyl N-(2'-Indolylcarbonyl)-(γ-benzylester)-R-Glutamyl-S-phenylglycinate], the figures for the IC50 on Type-B CCK receptor and on Type-A CCK receptor were 6300 nM and 200 nM, respectively.

With `CCCCCN(CCCCC)C(=O)[C@@H](CC(=O)O)NC(=O)c1ccc2ccccc2n1` [Example 21, N-(2'-Quinolylcarbonyl)-R-Asp-N^α,N^α -di-n-pentylamide], the values for the IC50 at Type-B CCK receptor and on Type-A CCK receptor were 6600 nM and 210 nM, respectively.

Take `CCOC(=O)CN(Cc1ccccc1)C(=O)[C@@H](CCC(=O)O)NC(=O)c1cc(O)c2cccc(O)c2n1` [Example 85, Ethyl N-(4',8'-Dihydroxyquinolyl-2-carbonyl)-R-Glutamyl (N-benzyl)glycinate]: the IC50 on Type-B CCK receptor was less than 10000 nM; at Type-A CCK receptor it was 100 nM.

Turning to `COC(=O)[C@@H](NC(=O)[C@@H](CCC(=O)O)NC(=O)c1cc(O)c2cccc(O)c2n1)c1ccccc1` [Example 93, Methyl N-(4',8'-Dihydroxyquinolyl-2-carbonyl)-R-Glutamyl-S-phenylglycinate], the IC50 at Type-B CCK receptor is not above 10000 nM; on Type-A CCK receptor it was 100 nM.

In the case of `CCCCCN(CCCCC)C(=O)[C@@H](CCC(=O)O)NC(=O)c1cc2ccccc2n1C` [Example 60, N-(N^i -Methyl-2,-Indolylcarbonyl)-R-Glu-N^α,N^α -dipentylamide], on Type-B CCK receptor (setting [1]), the “IC50, [^125 I]-BH-CCK, Type-B CCK Receptor” value was 1-10,000 nM. This compound came in with an IC50 on Type-A CCK receptor of 34 nM.
